In US20150313225A1:
Read-outs that look alike come from different tables or passages of the source.

What was measured:
Assay type in all cases: cell-based
Pyricularia oryzae = test: microbe, parasite or virus in culture; conditions: for inhibition of growth at 1 ppm / inhibition of growth at 0.016 ppm: Pyricularia oryzae, 168 h, read-out: Observed efficacy; for Observed efficacy: solo product
Phytophthora infestans = test: microbe, parasite or virus in culture; conditions: for Observed efficacy: solo product
Alternaria solani = test: Microtest against early blight caused by Alternaria solani (Alteso); conditions: solo product
Septoria tritici = test: Microtest against leaf blotch on wheat caused by Septoria tritici (Septtr); conditions: solo product; for inhibition of growth at 1.6e-05 ppm: 0.000016 ppm
Leptosphaeria nodorum = test: Microtest against wheat leaf spots caused by Leptosphaeria nodorum (Leptno); conditions: solo product; for inhibition of growth at […]: 0.00025 ppm
Botrytis cinerea = test: Microtiterplate test against the grey mold Botrytis cinerea (Botrci); conditions: solo product
[1] = Phytophthora infestans, 168 h, read-out: Observed efficacy
[2] = Alternaria solani, 168 h, 0.00025 ppm, read-out: Observed efficacy
[3] = Alternaria solani, 168 h, read-out: Observed efficacy
[4] = Zymoseptoria tritici, 168 h, read-out: Observed efficacy
[5] = Parastagonospora nodorum, 168 h, read-out: Observed efficacy
[6] = Botrytis cinerea, 168 h, 0.063 ppm, read-out: Observed efficacy

Compound	inhibition of growth at 1 ppm (Pyricularia oryzae) [%]	inhibition of growth at 63 ppm (Phytophthora infestans; [1]) [%]	inhibition of growth at […] (Alternaria solani; [2]) [%]	inhibition of growth at 0.004 ppm (Alternaria solani; [3]) [%]	inhibition of growth at 0.016 ppm (Alternaria solani; [3]) [%]	inhibition of growth at 1.6e-05 ppm (Septoria tritici; [4]) [%]	inhibition of growth at 0.001 ppm (Septoria tritici; [4]) [%]	inhibition of growth at 6.3e-05 ppm (Septoria tritici; [4]) [%]	inhibition of growth at […] (Leptosphaeria nodorum; [5]) [%]	inhibition of growth at 0.001 ppm (Leptosphaeria nodorum; [5]) [%]	inhibition of growth at […] (Botrytis cinerea; [6]) [%]	Observed efficacy (Pyricularia oryzae; 1 ppm)	Observed efficacy (Pyricularia oryzae; 4 ppm)	Observed efficacy (Phytophthora infestans; 4 ppm)	inhibition of growth at 0.016 ppm (Pyricularia oryzae) [%]	other results
COCC(O)(Cn1cncn1)c1ccc(Oc2ccc(F)cc2)cc1Cl (stereo not drawn) [I-27, 2-[2-chloro-4-(4-fluorophenoxy)phenyl]-1-methoxy-3-(1,2,4-triazol-1-yl)propan-2-ol]	29	31	4	0	12	7	9	6	8	6	22	–	–	–	–	inhibition of growth at 0.001 ppm (Alternaria solani; Alternaria solani, 168 h, 0.001 ppm, read-out: Observed efficacy): 0%; inhibition of growth at 0.004 ppm (Leptosphaeria nodorum; Parastagonospora nodorum, 168 h, 0.004 ppm, read-out: Observed efficacy): 15%; inhibition of growth at 0.016 ppm (Leptosphaeria nodorum; Parastagonospora nodorum, 168 h, 0.016 ppm, read-out: Observed efficacy): 24%
OC(Cc1ccccc1Cl)(Cn1nc[nH]c1=S)C1(Cl)CC1 (stereo not drawn) [Prothioconazol]	–	–	–	–	–	–	–	–	–	–	–	13	23	12	–	Observed efficacy (Phytophthora infestans; 1 ppm): 4; Observed efficacy (Phytophthora infestans; 16 ppm): 35; Observed efficacy (Alternaria solani; 1 ppm): 66; Observed efficacy (Septoria tritici; 0.016 ppm): 17; Observed efficacy (Leptosphaeria nodorum; 1 ppm): 43; Observed efficacy (Botrytis cinerea; 1 ppm): 36; Observed efficacy (Botrytis cinerea; 4 ppm): 72
CC(O)(Cn1cncn1)c1ccc(Oc2ccc(F)cc2)cc1Cl (stereo not drawn) [I-18, 2-[2-chloro-4-(4-fluorophenoxy)phenyl]-1-(1,2,4-triazol-1-yl)propan-2-ol]	5	19	–	0	7	4	4	0	26	–	13	–	–	–	1	inhibition of growth at 16 ppm (Phytophthora infestans; [1]): 15%; inhibition of growth at 6.3e-05 ppm (Leptosphaeria nodorum; Parastagonospora nodorum, 168 h, 0.000063 ppm, read-out: Observed efficacy): 22%; inhibition of growth at […] (Botrytis cinerea; Botrytis cinerea, 168 h, 0.25 ppm, read-out: Observed efficacy): 44%
CCC(Cn1cncn1)(OC)c1ccc(Oc2ccc(Cl)cc2)cc1Cl (stereo not drawn) [I-21, 1-[2-[2-chloro-4-(4-chlorophenoxy)phenyl]-2-methoxy-butyl]-1,2,4-triazole]	–	29	2	5	–	–	–	25	12	22	18	–	–	–	1	inhibition of growth at 4e-06 ppm (Septoria tritici; Zymoseptoria tritici, 168 h, 0.000004 ppm, read-out: Observed efficacy): 17%
C[N+]1(C)CCCCC1.[Cl-] [Mepiquat-cl]	–	–	–	–	–	–	–	–	–	–	–	2	1	5	–	Observed efficacy (Pyricularia oryzae; 16 ppm): 4; Observed efficacy (Alternaria solani; 16 ppm): 10; Observed efficacy (Alternaria solani; 63 ppm): 16; Observed efficacy (Septoria tritici; 63 ppm): 16; Observed efficacy (Leptosphaeria nodorum; 63 ppm): 28; Observed efficacy (Botrytis cinerea; 16 ppm): 11
CN1COCN(Cc2cnc(Cl)s2)/C1=N\[N+](=O)[O-] [II-42c, thiamethoxam, reference compound]	56	–	–	–	–	–	–	–	–	–	–	–	–	–	3	inhibition of growth at 1 ppm (Phytophthora infestans; [1]): 1%; inhibition of growth at 4 ppm (Phytophthora infestans; [1]): 2%; inhibition of growth at […] (Alternaria solani; Alternaria solani, 168 h, 0.25 ppm, read-out: Observed efficacy): 8%; inhibition of growth at 1 ppm (Alternaria solani; Alternaria solani, 168 h, 1 ppm, read-out: Observed efficacy): 10%; inhibition of growth at 4 ppm (Alternaria solani; Alternaria solani, 168 h, 4 ppm, read-out: Observed efficacy): 51%; inhibition of growth at 1 ppm (Septoria tritici; Zymoseptoria tritici, 168 h, 1 ppm, read-out: Observed efficacy): 57%; inhibition of growth at 1 ppm (Leptosphaeria nodorum; Parastagonospora nodorum, 168 h, 1 ppm, read-out: Observed efficacy): 22%; inhibition of growth at 4 ppm (Leptosphaeria nodorum; Parastagonospora nodorum, 168 h, 4 ppm, read-out: Observed efficacy): 51%; inhibition of growth at 63 ppm (Botrytis cinerea; Botrytis cinerea, 168 h, 63 ppm, read-out: Observed efficacy): 8%
